Reference: ChEMBL document CHEMBL1201862, “PubChem BioAssay data set” (2004)
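Following 48 hours of exposure in 96-well plates, responses at five concentrations were used to interpolate endpoints linearly. Abbreviation: GI50, concentration required for 50% inhibition of growth.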 The source made the active and inactive calls. Cut-off read from the data, not from the text of the source: active = GI50 up to about 1.1 µM and inactive = higher.

Assays:
Experiment in all cases: inhibition of tumour cell growth, NCI panel, 48 h
CCRF-CEM = system: CCRF-CEM
HCT-15 = system: HCT-15
SNB-78 = system: SNB-78
A498 = system: A498
HCC 2998 = system: HCC 2998
SK-OV-3 = system: SK-OV-3
TK-10 = system: TK-10
HCT-116 = system: HCT-116
RXF 393 = system: RXF 393
LOX IMVI = system: LOX IMVI
MOLT-4 = system: MOLT-4
KM12 = system: KM12
SNB-75 = system: SNB-75
COLO 205 = system: COLO 205
NCI-H460 = system: NCI-H460
A549 = system: A549
EKVX = system: EKVX
SK-MEL-28 = system: SK-MEL-28
OVCAR-3 = system: OVCAR-3

SMILES	GI50 (CCRF-CEM)	GI50 (HCT-15) [µM]	GI50 (SNB-78)	GI50 (A498)	GI50 (HCC 2998)	GI50 (SK-OV-3)	GI50 (TK-10)	GI50 (HCT-116)	GI50 (RXF 393)	GI50 (LOX IMVI)	GI50 (MOLT-4)	GI50 (KM12)	GI50 (SNB-75)	GI50 (COLO 205)	GI50 (NCI-H460)	GI50 (A549)	GI50 (EKVX)	GI50 (SK-MEL-28)	GI50 (OVCAR-3)
O=C(c1c(O)cc(O)cc1O)C1Cc2ccccc21 (stereo unspecified)	> 100 µM (inactive)	> 100	58.7 µM (inactive)	> 100 µM (inactive)	> 100 µM (inactive)	> 100 µM (inactive)	> 100 µM (inactive)	86.5 µM (inactive)	76 µM (inactive)	> 100 µM (inactive)	> 100 µM (inactive)	> 100 µM (inactive)	13.4 µM (inactive)	> 100 µM (inactive)	82.4 µM (inactive)	91.6 µM (inactive)			
CC(=O)OC1(C#N)CC2OC1C1C2N1C(=O)OC(C)(C)C (stereo unspecified)	> 100 µM (inactive)	> 100	> 100 µM (inactive)	> 100 µM (inactive)	> 100 µM (inactive)	> 100 µM (inactive)	> 100 µM (inactive)	> 100 µM (inactive)	> 100 µM (inactive)	> 100 µM (inactive)	> 100 µM (inactive)		> 100 µM (inactive)	> 100 µM (inactive)	> 100 µM (inactive)	> 100 µM (inactive)	> 100 µM (inactive)	> 100 µM (inactive)	
O=C(Nc1c(O)[nH]c(=S)[nH]c1=O)c1ccccn1	> 100 µM (inactive)	> 100	> 100 µM (inactive)	> 100 µM (inactive)		> 100 µM (inactive)	> 100 µM (inactive)	> 100 µM (inactive)		> 100 µM (inactive)	> 100 µM (inactive)	> 100 µM (inactive)	> 100 µM (inactive)	> 100 µM (inactive)	> 100 µM (inactive)	> 100 µM (inactive)		> 100 µM (inactive)	> 100 µM (inactive)
CC(=O)N1CCC2(c3ccccc3N(C(C)=O)C2c2ccc(O)cc2)C1C(=O)O (stereo unspecified)	> 100 µM (inactive)		> 100 µM (inactive)	> 100 µM (inactive)	> 100 µM (inactive)	> 100 µM (inactive)	> 100 µM (inactive)	> 100 µM (inactive)	> 100 µM (inactive)	> 100 µM (inactive)	> 100 µM (inactive)	> 100 µM (inactive)	> 100 µM (inactive)	> 100 µM (inactive)		> 100 µM (inactive)	> 100 µM (inactive)	> 100 µM (inactive)	> 100 µM (inactive)
CC(SC(=O)Nc1ccc(/N=N/c2ccccc2)cc1)C(=O)O (stereo unspecified)	36 µM (inactive)	> 100	> 100 µM (inactive)	> 100 µM (inactive)	> 100 µM (inactive)		58.1 µM (inactive)	> 100 µM (inactive)	73.5 µM (inactive)	> 100 µM (inactive)	34 µM (inactive)	54.3 µM (inactive)	6.4 µM (inactive)	> 100 µM (inactive)	> 100 µM (inactive)	56.4 µM (inactive)	> 100 µM (inactive)	> 100 µM (inactive)	> 100 µM (inactive)
O=c1cc2ccccc2nn1Cc1cccc(Cl)c1	71.1 µM (inactive)	99.5	> 100 µM (inactive)	> 100 µM (inactive)	> 100 µM (inactive)	> 100 µM (inactive)	> 100 µM (inactive)	78.9 µM (inactive)		> 100 µM (inactive)		> 100 µM (inactive)	32.7 µM (inactive)	> 100 µM (inactive)	> 100 µM (inactive)	49.8 µM (inactive)	> 100 µM (inactive)	98.9 µM (inactive)	62.2 µM (inactive)
O=c1[nH]c(=O)n(C2CC(O)C(CO)O2)cc1/C=C/Br (stereo unspecified)	> 100 µM (inactive)		> 100 µM (inactive)	> 100 µM (inactive)		> 100 µM (inactive)	> 100 µM (inactive)		> 100 µM (inactive)	> 100 µM (inactive)	> 100 µM (inactive)	> 100 µM (inactive)			> 100 µM (inactive)	> 100 µM (inactive)	> 100 µM (inactive)	> 100 µM (inactive)	
COc1nc(NC2OC(COC(C)=O)C(OC(C)=O)C(OC(C)=O)C2OC(C)=O)c(/N=C(\C)C(C)=O)c(=O)n1C (stereo unspecified)	> 100 µM (inactive)	> 100	> 100 µM (inactive)	> 100 µM (inactive)	> 100 µM (inactive)	> 100 µM (inactive)	> 100 µM (inactive)	> 100 µM (inactive)	> 100 µM (inactive)	> 100 µM (inactive)	> 100 µM (inactive)	> 100 µM (inactive)	> 100 µM (inactive)	> 100 µM (inactive)	> 100 µM (inactive)	> 100 µM (inactive)	> 100 µM (inactive)		> 100 µM (inactive)
CSc1c(C)c(C)nn1-c1ccccc1	> 100 µM (inactive)	> 100	> 100 µM (inactive)	> 100 µM (inactive)	> 100 µM (inactive)	> 100 µM (inactive)	> 100 µM (inactive)		> 100 µM (inactive)	> 100 µM (inactive)	> 100 µM (inactive)	> 100 µM (inactive)	58.2 µM (inactive)	> 100 µM (inactive)	> 100 µM (inactive)	> 100 µM (inactive)	> 100 µM (inactive)	> 100 µM (inactive)	
CN(C)c1ccc(/C=c2/sc3nc(=O)c(-c4ccccc4NC(=O)C(F)(F)F)nn3c2=O)cc1	> 100 µM (inactive)		> 100 µM (inactive)		> 100 µM (inactive)	> 100 µM (inactive)	> 100 µM (inactive)		> 100 µM (inactive)	> 100 µM (inactive)	> 100 µM (inactive)	> 100 µM (inactive)	> 100 µM (inactive)	98.6 µM (inactive)	> 100 µM (inactive)	> 100 µM (inactive)	> 100 µM (inactive)	> 100 µM (inactive)	> 100 µM (inactive)
O=C1CCC2(c3ccc(Cl)cc3)Nc3ncccc3N12 (stereo unspecified)	> 100 µM (inactive)	> 100	63 µM (inactive)	> 100 µM (inactive)	> 100 µM (inactive)	> 100 µM (inactive)	> 100 µM (inactive)		> 100 µM (inactive)	> 100 µM (inactive)	> 100 µM (inactive)	> 100 µM (inactive)	79.8 µM (inactive)	> 100 µM (inactive)	> 100 µM (inactive)	> 100 µM (inactive)	> 100 µM (inactive)	> 100 µM (inactive)	> 100 µM (inactive)
O=C(Cc1nc2ccccc2s1)Nc1ccc(Cl)cc1	> 100 µM (inactive)		> 100 µM (inactive)	> 100 µM (inactive)	> 100 µM (inactive)	> 100 µM (inactive)	> 100 µM (inactive)	> 100 µM (inactive)	> 100 µM (inactive)	60.8 µM (inactive)	> 100 µM (inactive)	78.5 µM (inactive)	91.6 µM (inactive)	> 100 µM (inactive)	> 100 µM (inactive)	97.9 µM (inactive)	> 100 µM (inactive)	> 100 µM (inactive)	> 100 µM (inactive)
